In the kinase profiling compilation of Christmann-Franck et al. (2016):
Where “and” joins values, the source holds several entries; their conditions need not be identical. Identical values can stand only once.

Key:
Assay in all cases: radiometric filter-binding kinase assay, Kinase HotSpot
Conditions in all cases: compound 0.5 µM; ATP 10 µM
HIPK1 (human) = HIPK1 (human) (UniProt Q86Z02)
PRKCD (human) = PRKCD (human) (UniProt Q05655)
CDK4 CCND3 (human) = CDK4 CCND3 (human) (UniProt P30281+P11802)
JAK2 JH1 JH2 (human) = JAK2 JH1 JH2 (human) (UniProt O60674)
EPHA8 (human) = EPHA8 (human) (UniProt P29322)
RET (human) = RET (human) (UniProt P07949)
MAPK12 (human) = MAPK12 (human) (UniProt P53778)
Sequence of MAPK12 (human) (P53778 whole entry, looked up): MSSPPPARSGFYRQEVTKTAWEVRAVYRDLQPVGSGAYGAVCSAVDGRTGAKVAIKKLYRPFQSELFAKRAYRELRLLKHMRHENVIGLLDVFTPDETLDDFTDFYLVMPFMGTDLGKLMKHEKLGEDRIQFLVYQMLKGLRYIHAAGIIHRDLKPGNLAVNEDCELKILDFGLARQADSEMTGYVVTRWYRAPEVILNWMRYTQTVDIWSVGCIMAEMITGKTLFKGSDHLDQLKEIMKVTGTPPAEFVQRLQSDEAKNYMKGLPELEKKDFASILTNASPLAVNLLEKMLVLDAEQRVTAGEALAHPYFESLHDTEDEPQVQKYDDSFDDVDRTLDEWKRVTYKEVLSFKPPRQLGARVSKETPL

DCLK2 (human) = DCLK2 (human) (UniProt Q8N568)
NEK6 (human) = NEK6 (human) (UniProt Q9HC98)
MAP4K5 (human) = MAP4K5 (human) (UniProt Q9Y4K4)
MARK2 (human) = MARK2 (human) (UniProt Q7KZI7)
ABL2 (human) = ABL2 (human) (UniProt P42684)
NEK9 (human) = NEK9 (human) (UniProt Q8TD19)
EPHA5 (human) = EPHA5 (human) (UniProt P54756)
INSRR (human) = INSRR (human) (UniProt P14616)
Sequence of INSRR (human) (P14616 whole entry, looked up): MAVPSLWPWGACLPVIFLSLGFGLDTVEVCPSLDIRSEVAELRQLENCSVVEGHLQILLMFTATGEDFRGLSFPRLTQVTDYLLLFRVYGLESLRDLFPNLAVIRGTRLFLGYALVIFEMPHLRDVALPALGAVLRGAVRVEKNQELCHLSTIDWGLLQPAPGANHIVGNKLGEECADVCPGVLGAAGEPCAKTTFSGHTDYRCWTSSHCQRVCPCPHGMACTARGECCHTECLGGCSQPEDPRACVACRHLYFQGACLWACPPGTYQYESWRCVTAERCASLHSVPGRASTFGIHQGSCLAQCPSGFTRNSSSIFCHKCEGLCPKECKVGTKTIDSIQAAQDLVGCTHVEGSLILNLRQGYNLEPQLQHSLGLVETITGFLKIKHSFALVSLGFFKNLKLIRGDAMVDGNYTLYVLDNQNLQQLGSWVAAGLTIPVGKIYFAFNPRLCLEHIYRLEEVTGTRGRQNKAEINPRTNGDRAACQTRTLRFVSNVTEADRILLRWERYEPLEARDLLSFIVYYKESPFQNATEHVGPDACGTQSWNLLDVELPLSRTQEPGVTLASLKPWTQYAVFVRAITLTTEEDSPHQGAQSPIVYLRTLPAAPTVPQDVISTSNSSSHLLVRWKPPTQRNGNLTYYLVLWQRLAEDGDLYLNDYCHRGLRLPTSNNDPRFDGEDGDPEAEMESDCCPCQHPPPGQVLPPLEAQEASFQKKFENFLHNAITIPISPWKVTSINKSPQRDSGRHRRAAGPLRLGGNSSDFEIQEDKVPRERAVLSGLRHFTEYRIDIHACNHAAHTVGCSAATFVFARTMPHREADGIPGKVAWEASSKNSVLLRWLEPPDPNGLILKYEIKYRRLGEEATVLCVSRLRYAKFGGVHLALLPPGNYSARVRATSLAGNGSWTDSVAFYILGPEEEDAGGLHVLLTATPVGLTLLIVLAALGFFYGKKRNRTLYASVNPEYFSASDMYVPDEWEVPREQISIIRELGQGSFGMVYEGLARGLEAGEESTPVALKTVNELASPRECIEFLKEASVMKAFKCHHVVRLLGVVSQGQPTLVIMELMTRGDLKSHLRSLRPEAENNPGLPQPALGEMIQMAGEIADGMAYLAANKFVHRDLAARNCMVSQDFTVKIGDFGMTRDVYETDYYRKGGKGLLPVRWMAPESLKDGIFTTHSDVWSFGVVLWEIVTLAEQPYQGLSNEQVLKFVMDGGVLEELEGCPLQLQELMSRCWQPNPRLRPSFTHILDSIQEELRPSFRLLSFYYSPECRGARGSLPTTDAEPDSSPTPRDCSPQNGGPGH

MAP2K2 (human) = MAP2K2 (human) (UniProt P36507)
GRK5 (human) = GRK5 (human) (UniProt P34947)
BMX (human) = BMX (human) (UniProt P51813)
CAMK2B (human) = CAMK2B (human) (UniProt Q13554)
MAP3K3 (human) = MAP3K3 (human) (UniProt Q99759)
Sequence of MAP3K3 (human) (Q99759 whole entry, looked up): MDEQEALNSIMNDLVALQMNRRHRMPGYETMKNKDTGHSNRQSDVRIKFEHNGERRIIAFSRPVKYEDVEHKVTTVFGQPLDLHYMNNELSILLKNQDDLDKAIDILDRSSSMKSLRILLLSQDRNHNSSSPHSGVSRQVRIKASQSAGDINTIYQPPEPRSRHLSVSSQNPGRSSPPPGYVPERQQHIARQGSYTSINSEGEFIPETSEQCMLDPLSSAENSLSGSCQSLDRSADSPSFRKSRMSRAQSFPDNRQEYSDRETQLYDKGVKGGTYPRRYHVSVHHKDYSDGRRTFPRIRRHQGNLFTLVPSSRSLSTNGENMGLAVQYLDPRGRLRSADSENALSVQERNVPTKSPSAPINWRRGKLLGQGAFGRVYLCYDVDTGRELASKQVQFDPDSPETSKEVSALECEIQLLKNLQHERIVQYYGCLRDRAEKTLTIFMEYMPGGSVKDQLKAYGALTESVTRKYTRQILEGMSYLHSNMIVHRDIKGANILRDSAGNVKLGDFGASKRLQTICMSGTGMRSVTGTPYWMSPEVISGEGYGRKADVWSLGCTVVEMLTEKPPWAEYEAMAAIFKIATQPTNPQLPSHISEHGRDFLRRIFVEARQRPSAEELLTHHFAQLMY

CHUK (human) = CHUK (human) (UniProt O15111)
CAMK1D (human) = CAMK1D (human) (UniProt Q8IU85)
NEK7 (human) = NEK7 (human) (UniProt Q8TDX7)
NEK1 (human) = NEK1 (human) (UniProt Q96PY6)
SGK2 (human) = SGK2 (human) (UniProt Q9HBY8)
Sequence of SGK2 (human) (Q9HBY8 whole entry, looked up): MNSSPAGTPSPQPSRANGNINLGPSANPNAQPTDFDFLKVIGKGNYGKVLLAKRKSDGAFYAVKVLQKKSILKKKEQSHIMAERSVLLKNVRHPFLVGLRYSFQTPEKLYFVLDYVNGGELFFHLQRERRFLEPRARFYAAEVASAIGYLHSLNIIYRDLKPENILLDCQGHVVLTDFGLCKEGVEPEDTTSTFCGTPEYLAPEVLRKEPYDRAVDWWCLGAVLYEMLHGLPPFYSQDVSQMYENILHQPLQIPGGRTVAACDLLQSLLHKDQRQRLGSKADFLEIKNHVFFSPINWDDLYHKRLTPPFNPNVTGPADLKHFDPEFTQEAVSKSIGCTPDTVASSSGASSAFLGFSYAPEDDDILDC

SRPK2 (human) = SRPK2 (human) (UniProt P78362)
Sequence of SRPK2 (human) (P78362 whole entry, looked up): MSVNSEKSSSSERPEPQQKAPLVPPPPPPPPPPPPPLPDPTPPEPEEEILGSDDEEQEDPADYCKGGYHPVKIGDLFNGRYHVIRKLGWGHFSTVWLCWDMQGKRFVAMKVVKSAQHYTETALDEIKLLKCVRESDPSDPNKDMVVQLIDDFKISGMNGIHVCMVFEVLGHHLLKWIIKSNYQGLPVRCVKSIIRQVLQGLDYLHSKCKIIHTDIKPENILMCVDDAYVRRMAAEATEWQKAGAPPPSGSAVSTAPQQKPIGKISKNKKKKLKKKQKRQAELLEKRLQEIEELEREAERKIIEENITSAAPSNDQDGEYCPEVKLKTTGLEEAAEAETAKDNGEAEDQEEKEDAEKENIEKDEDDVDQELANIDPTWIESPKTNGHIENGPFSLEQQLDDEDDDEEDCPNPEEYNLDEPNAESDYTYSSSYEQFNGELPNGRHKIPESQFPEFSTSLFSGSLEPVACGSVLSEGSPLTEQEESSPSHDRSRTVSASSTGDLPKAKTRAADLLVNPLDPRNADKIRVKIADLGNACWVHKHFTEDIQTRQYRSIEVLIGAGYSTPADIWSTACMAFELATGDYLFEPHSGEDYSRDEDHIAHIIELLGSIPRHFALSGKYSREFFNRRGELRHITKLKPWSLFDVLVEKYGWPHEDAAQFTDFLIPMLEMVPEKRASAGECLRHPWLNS

MAPK8 (human) = MAPK8 (human) (UniProt P45983)
GRK4 (human) = GRK4 (human) (UniProt P32298)
PRKCG (human) = PRKCG (human) (UniProt P05129)
NEK4 (human) = NEK4 (human) (UniProt P51957)
TAOK3 (human) = TAOK3 (human) (UniProt Q9H2K8)
BTK (human) = BTK (human) (UniProt Q06187)
PRKD1 (human) = PRKD1 (human) (UniProt Q15139)
Sequence of PRKD1 (human) (Q15139 whole entry, looked up): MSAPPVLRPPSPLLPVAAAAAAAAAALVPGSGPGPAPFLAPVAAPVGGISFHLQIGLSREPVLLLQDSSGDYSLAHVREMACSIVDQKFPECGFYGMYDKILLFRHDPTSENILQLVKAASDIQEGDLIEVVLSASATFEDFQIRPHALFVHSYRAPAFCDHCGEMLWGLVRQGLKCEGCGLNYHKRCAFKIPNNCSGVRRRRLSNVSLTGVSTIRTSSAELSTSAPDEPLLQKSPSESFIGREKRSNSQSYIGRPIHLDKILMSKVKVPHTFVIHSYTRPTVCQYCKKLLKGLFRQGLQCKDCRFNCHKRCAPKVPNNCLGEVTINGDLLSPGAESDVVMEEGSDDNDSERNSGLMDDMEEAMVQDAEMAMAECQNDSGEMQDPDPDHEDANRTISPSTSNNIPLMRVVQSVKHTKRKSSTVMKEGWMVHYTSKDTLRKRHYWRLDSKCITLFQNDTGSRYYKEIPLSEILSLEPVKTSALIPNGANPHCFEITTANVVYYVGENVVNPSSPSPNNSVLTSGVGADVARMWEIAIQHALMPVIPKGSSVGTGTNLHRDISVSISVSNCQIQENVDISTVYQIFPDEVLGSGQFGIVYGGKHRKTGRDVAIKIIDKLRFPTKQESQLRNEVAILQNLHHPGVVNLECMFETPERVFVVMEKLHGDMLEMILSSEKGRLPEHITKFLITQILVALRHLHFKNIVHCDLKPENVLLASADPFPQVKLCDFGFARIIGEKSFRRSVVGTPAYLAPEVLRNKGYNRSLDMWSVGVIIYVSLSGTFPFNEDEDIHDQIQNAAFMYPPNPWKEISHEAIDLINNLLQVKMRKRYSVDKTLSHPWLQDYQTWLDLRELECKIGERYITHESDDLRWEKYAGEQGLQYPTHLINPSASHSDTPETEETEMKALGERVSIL

ERBB4 (human) = ERBB4 (human) (UniProt Q15303)
CSNK1G1 (human) = CSNK1G1 (human) (UniProt Q9HCP0)
DSTYK (human) = DSTYK (human) (UniProt Q6XUX3)
LRRK2 (human) = LRRK2 (human) (UniProt Q5S007)
DYRK4 (human) = DYRK4 (human) (UniProt Q9NR20)
PRKG1 (human) = PRKG1 (human) (UniProt Q13976)
Sequence of PRKG1 (human) (Q13976 whole entry, looked up): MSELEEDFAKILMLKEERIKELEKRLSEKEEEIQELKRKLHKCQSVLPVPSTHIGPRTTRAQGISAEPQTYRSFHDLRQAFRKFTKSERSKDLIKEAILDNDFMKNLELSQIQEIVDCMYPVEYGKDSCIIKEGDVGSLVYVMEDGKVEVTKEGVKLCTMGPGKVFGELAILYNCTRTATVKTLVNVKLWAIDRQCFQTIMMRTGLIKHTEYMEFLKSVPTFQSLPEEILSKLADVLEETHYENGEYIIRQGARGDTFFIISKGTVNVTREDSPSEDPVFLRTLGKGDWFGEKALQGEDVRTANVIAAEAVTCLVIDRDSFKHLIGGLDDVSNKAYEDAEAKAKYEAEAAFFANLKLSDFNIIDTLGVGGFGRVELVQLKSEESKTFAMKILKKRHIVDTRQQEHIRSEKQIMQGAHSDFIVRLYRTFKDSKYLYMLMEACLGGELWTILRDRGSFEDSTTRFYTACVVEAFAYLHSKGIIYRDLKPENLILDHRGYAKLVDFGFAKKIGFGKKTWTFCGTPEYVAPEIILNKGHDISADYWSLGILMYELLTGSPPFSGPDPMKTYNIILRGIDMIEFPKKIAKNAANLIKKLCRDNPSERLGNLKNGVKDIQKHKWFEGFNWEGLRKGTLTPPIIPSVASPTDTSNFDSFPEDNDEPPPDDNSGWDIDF

EPHA1 (human) = EPHA1 (human) (UniProt P21709)
YES1 (human) = YES1 (human) (UniProt P07947)
HCK (human) = HCK (human) (UniProt P08631)

COc1cc2nccc(Oc3ccc(NC(=S)NC(=O)c4ccccc4C)cc3)c2cc1OC
residual activity (HIPK1 (human)): 100% | residual activity (PRKCD (human)): 90.4% | residual activity (CDK4 CCND3 (human)): 93.4% | residual activity (JAK2 JH1 JH2 (human)): 97.7% | residual activity (EPHA8 (human)): 84.1% | residual activity (RET (human)): 86.7% | residual activity (MAPK12 (human)): 96.8% | residual activity (DCLK2 (human)): 91.5% | residual activity (NEK6 (human)): 92.4% | residual activity (MAP4K5 (human)): 11.1% | residual activity (MARK2 (human)): 82.3% | residual activity (ABL2 (human)): 74.1% | residual activity (NEK9 (human)): 103% | residual activity (EPHA5 (human)): 91% | residual activity (INSRR (human)): 98.2% | residual activity (MAP2K2 (human)): 79.4% | residual activity (GRK5 (human)): 98.8% | residual activity (BMX (human)): 30.6% | residual activity (CAMK2B (human)): 104% | residual activity (MAP3K3 (human)): 105% | residual activity (CHUK (human)): 98.3% | residual activity (CAMK1D (human)): 72.5% | residual activity (NEK7 (human)): 106% | residual activity (NEK1 (human)): 96.7% | residual activity (SGK2 (human)): 97.3% | residual activity (SRPK2 (human)): 93.4% | residual activity (MAPK8 (human)): 81.3% | residual activity (GRK4 (human)): 95.9% | residual activity (PRKCG (human)): 100% | residual activity (NEK4 (human)): 97.6% | residual activity (TAOK3 (human)): 87.9% | residual activity (BTK (human)): 28.4% | residual activity (PRKD1 (human)): 137% | residual activity (ERBB4 (human)): 114% | residual activity (CSNK1G1 (human)): 80.1% | residual activity (DSTYK (human)): 112% | residual activity (LRRK2 (human)): 94.4% | residual activity (DYRK4 (human)): 92.7% | residual activity (PRKG1 (human)): 101% and 91.6% | residual activity (EPHA1 (human)): 83% | residual activity (YES1 (human)): 23.8% | residual activity (HCK (human)): 4.93%

Clc1ccc(Nc2nnc(Cc3ccncc3)c3ccccc23)cc1
residual activity (HIPK1 (human)): 99.2% | residual activity (PRKCD (human)): 97.4% | residual activity (CDK4 CCND3 (human)): 102% | residual activity (JAK2 JH1 JH2 (human)): 106% | residual activity (EPHA8 (human)): 100% | residual activity (RET (human)): 89.1% | residual activity (MAPK12 (human)): 96.8% | residual activity (DCLK2 (human)): 100% | residual activity (NEK6 (human)): 93.3% | residual activity (MAP4K5 (human)): 101% | residual activity (MARK2 (human)): 133% | residual activity (ABL2 (human)): 101% | residual activity (NEK9 (human)): 98.4% | residual activity (EPHA5 (human)): 109% | residual activity (INSRR (human)): 93.5% | residual activity (MAP2K2 (human)): 100% | residual activity (GRK5 (human)): 110% | residual activity (BMX (human)): 106% | residual activity (CAMK2B (human)): 109% | residual activity (MAP3K3 (human)): 118% | residual activity (CHUK (human)): 104% | residual activity (CAMK1D (human)): 108% | residual activity (NEK7 (human)): 96.8% | residual activity (NEK1 (human)): 75.3% | residual activity (SGK2 (human)): 104% | residual activity (SRPK2 (human)): 96.5% | residual activity (MAPK8 (human)): 98.2% | residual activity (GRK4 (human)): 91.3% | residual activity (PRKCG (human)): 93.3% | residual activity (NEK4 (human)): 97.7% | residual activity (TAOK3 (human)): 99.9% | residual activity (BTK (human)): 95.4% | residual activity (PRKD1 (human)): 101% | residual activity (ERBB4 (human)): 104% | residual activity (CSNK1G1 (human)): 103% | residual activity (DSTYK (human)): 96.5% | residual activity (LRRK2 (human)): 74.8% | residual activity (DYRK4 (human)): 97.5% | residual activity (PRKG1 (human)): 94.1% and 97.2% | residual activity (EPHA1 (human)): 96% | residual activity (YES1 (human)): 93% | residual activity (HCK (human)): 89.5%

COc1ccc(-c2cnc3c(-c4ccsc4)cnn3c2)cc1
residual activity (HIPK1 (human)): 99.8% | residual activity (PRKCD (human)): 98.9% | residual activity (CDK4 CCND3 (human)): 82.9% | residual activity (JAK2 JH1 JH2 (human)): 98.4% | residual activity (EPHA8 (human)): 90.3% | residual activity (RET (human)): 92% | residual activity (MAPK12 (human)): 94.8% | residual activity (DCLK2 (human)): 97.5% | residual activity (NEK6 (human)): 99.3% | residual activity (MAP4K5 (human)): 60.3% | residual activity (MARK2 (human)): 82.1% | residual activity (ABL2 (human)): 63.4% | residual activity (NEK9 (human)): 90.3% | residual activity (EPHA5 (human)): 89.1% | residual activity (INSRR (human)): 98.7% | residual activity (MAP2K2 (human)): 95.5% | residual activity (GRK5 (human)): 97.4% | residual activity (BMX (human)): 90.6% | residual activity (CAMK2B (human)): 88.7% | residual activity (MAP3K3 (human)): 99.4% | residual activity (CHUK (human)): 94.5% | residual activity (CAMK1D (human)): 93.5% | residual activity (NEK7 (human)): 109% | residual activity (NEK1 (human)): 89.4% | residual activity (SGK2 (human)): 96.7% | residual activity (SRPK2 (human)): 94.1% | residual activity (MAPK8 (human)): 100% | residual activity (GRK4 (human)): 97% | residual activity (PRKCG (human)): 112% | residual activity (NEK4 (human)): 80% | residual activity (TAOK3 (human)): 96.9% | residual activity (BTK (human)): 97.1% | residual activity (PRKD1 (human)): 95.1% | residual activity (ERBB4 (human)): 94.2% | residual activity (CSNK1G1 (human)): 90.3% | residual activity (DSTYK (human)): 97.6% | residual activity (LRRK2 (human)): 68.1% | residual activity (DYRK4 (human)): 129% | residual activity (PRKG1 (human)): 86.5% and 89.1% | residual activity (EPHA1 (human)): 91.5% | residual activity (YES1 (human)): 67.7% | residual activity (HCK (human)): 81.9%

CCN1/C(=C/C(C)=O)Sc2ccc(OC)cc21
residual activity (HIPK1 (human)): 95% | residual activity (PRKCD (human)): 88.2% | residual activity (CDK4 CCND3 (human)): 97.4% | residual activity (JAK2 JH1 JH2 (human)): 97.1% | residual activity (EPHA8 (human)): 98.5% | residual activity (RET (human)): 96.5% | residual activity (MAPK12 (human)): 99.8% | residual activity (DCLK2 (human)): 97.9% | residual activity (NEK6 (human)): 109% | residual activity (MAP4K5 (human)): 92.3% | residual activity (MARK2 (human)): 89.5% | residual activity (ABL2 (human)): 96.1% | residual activity (NEK9 (human)): 102% | residual activity (EPHA5 (human)): 97.8% | residual activity (INSRR (human)): 91.6% | residual activity (MAP2K2 (human)): 86.4% | residual activity (GRK5 (human)): 108% | residual activity (BMX (human)): 105% | residual activity (CAMK2B (human)): 102% | residual activity (MAP3K3 (human)): 114% | residual activity (CHUK (human)): 89.9% | residual activity (CAMK1D (human)): 105% | residual activity (NEK1 (human)): 90.1% | residual activity (SGK2 (human)): 93.7% | residual activity (SRPK2 (human)): 95.8% | residual activity (MAPK8 (human)): 102% | residual activity (GRK4 (human)): 96.2% | residual activity (PRKCG (human)): 75.4% | residual activity (NEK4 (human)): 92.8% | residual activity (TAOK3 (human)): 95.6% | residual activity (BTK (human)): 101% | residual activity (PRKD1 (human)): 78.1% | residual activity (ERBB4 (human)): 101% | residual activity (CSNK1G1 (human)): 87.8% | residual activity (DSTYK (human)): 90.6% | residual activity (LRRK2 (human)): 98.1% | residual activity (DYRK4 (human)): 82.3% | residual activity (PRKG1 (human)): 82.4% and 87% | residual activity (EPHA1 (human)): 95.8% | residual activity (YES1 (human)): 91.8% | residual activity (HCK (human)): 97.5%
